We go through two compounds from patent publication US20010051131A1, “METHODS FOR DELIVERING BIOACTIVE AGENTS” (priority 1996, published 2001).

In test [1] the test system is glioblastoma mutiformae. It is filed as in vivo.
Protocol: An acoustically active composition is prepared in a 2 mL vial from an aqueous mixture of phosphatidylcholine vesicles filled with perfluorobutane gas in a manner as described above. The resulting compositions contains about 2×10^9 gas filled vesicles. The vial of gas filled vesicles will be diluted into a 100 mL volume of normal saline such that the final gas filled vesicle concentration is about 2×10^7 gas filled vesicles/mL.
The scalp of a patient suffering from glioblastoma mutiformae will be shaved prior to the procedure. The patient will receive an intravenous infusion of 200 mg/M^2 of Carmustine (BCNU) over a period of about 30 minutes. Fifteen minutes after initiating IV injection of Carmustine, IV infusion of the gas filled vesicle composition will be initiated at a rate of about 2 mL per minute (or about 4×10^7 gas filled vesicles per minute). One minute after initiation of infusion of gas filled vesicles, a 200-kilohertz ultrasound transducer will be turned on, and using an acoustic gel, it will be applied to the shaved area of the scalp. The transducer is focused on the glioblastoma. The energy of the transducer will be adjusted to a peak negative pressure of about 2.5 megaPascals and maintained as such for about 30 minutes (for about 15 minutes after infusion of Carmustine has ceased). The infusion of gas filled vesicles will then be terminated.
The test system of test [2] is prostate cancer. In words: Delivery of a radiation sensitizer to treat prostate cancer with air-filled polylactic acid microspheres and ultrasound. Particulars: 100 mg/m^2 IV over 1 hour, microspheres 5×10^7/minute, endorectal ultrasound 1.5 MegaPascals for 30 minutes.

As to `O=NN(CCCl)C(=O)NCCCl` [Carmustine], the tumor control result in test [1] (200 mg/M^2 IV over about 30 minutes, gas filled vesicles about 2 mL per minute, 200-kilohertz ultrasound, 2.5 megaPascals) is “improved tumor control”. Further, the “delivery of the drug into the tumor tissue” value in test [1] (in vivo, iv) is reported as “enhanced delivery of the drug into the tumor tissue”.
Regarding `CC(=O)O[C@H]1C(=O)[C@@]2(C)[C@H]([C@H](OC(=O)c3ccccc3)[C@]3(O)C[C@H](OC(=O)[C@H](O)[C@@H](NC(=O)c4ccccc4)c4ccccc4)C(C)=C1C3(C)C)[C@]1(OC(C)=O)CO[C@@H]1C[C@@H]2O` [Paclitaxel], the “delivery of drug within the prostate gland” value in test [2] is “increased delivery of drug within the prostate gland”. Also, the tumor control entry in test [2] (then radiation therapy) was “Improved tumor control”.
